The conditions of series [1]: cited from earlier work.
Series [2] can be described thus: T1 relaxivity measurements at 0.5 T. It counts as physicochemical. Particulars: 20 MHz, 25 °C.

As to `O=C([O-])CN1CCN(CC(=O)[O-])CCN(CC(=O)[O-])CC1.[Ga+3]` [Ga-NOTA], the “thermodynamic stability constant log K” value in series [1] is 31.0.

As to `O=C([O-])CN1CCN(CC(=O)[O-])CCN(CC(=O)O)CCN(CC(=O)[O-])CC1.[Gd+3]` [Gd-DOTA], the “thermodynamic stability constant log K” value in series [1] is reported as 24.7.

With `O=C([O-])CN1CCN(CC(=O)[O-])CCN(CC(=O)[O-])CC1.[Gd+3]` [Gd-NOTA], the “thermodynamic stability constant log K” value in series [1] is 14.3.

On to `CNC[C@H](O)[C@@H](O)[C@H](O)[C@H](O)CO.CNC[C@H](O)[C@@H](O)[C@H](O)[C@H](O)CO.O=C([O-])CN(CCN(CC(=O)[O-])CC(=O)O)CCN(CC(=O)[O-])CC(=O)O.[Gd+3]` [Magnevist], for which, in series [2], the T1 relaxivity turned out to be 4.1 mM^–1 s^–1.

(Values after paper PMC4428032 (Bioconjugate Chemistry, 2015).)
